The results in this text go back to US20170173114A1, “METHODS AND COMPOSITIONS FOR INDUCTION OF UCP1 EXPRESSION” (Joslin Diabetes Center, Inc., priority 2014, published 2017).

Type in all cases: cell-based, murine
The test system of assay [1] is WT-1 brown preadipocytes. Nature of the assay: 2-deoxy-[3H]glucose uptake in WT-1 brown preadipocytes. The note with it: growth media, two days. On the procedure:
The following glucose uptake assay was used to determine whether FGF6 could impact cellular glucose uptake. Specifically, glucose uptake was monitored in WT-1 brown preadipocytes and 3T3-F442A white preadipocytes in the presence or absence of FGF6. After serum starvation in DMEM/H medium containing 1% of BSA for 2-3 h, cells were washed with HEPES buffer and then incubated with or without 100 nM insulin for 30 min in DMEM/H medium containing 1% of BSA. Glucose transport was determined by the addition of 2-deoxy-[3H]glucose (0.1 mM, 0.5 μCi/mL; PerkinElmer Life and Analytical Science, Waltham, Mass.). After 5 minutes of incubation, the reaction was stopped by ice-cold PBS and cells were washed twice with ice-cold PBS. Cells were then lysed in 0.1% SDS, and glucose uptake was assessed in 4 mL of scintillant using Beckman LS6500 scintillation counter (Beckman Coulter, Indianapolis Ind.). Nonspecific 2-deoxy-[3H]glucose uptake was measured in the presence of cytochalasin B (20 μM) and was subtracted from the total uptake to get specific glucose uptake. Results were expressed as the mean±s.e.m. of the indicated number of experiments. The protein content was determined by the Bradford method.
(§1) The role of PGs in regulating mitochondrial function and cellular glucose uptake was also assessed. […]

A further assay concerns UCP1. The assay is described as follows: UCP1 mRNA expression (Q-RT-PCR) in WT-1 brown preadipocytes. As to conditions: WT-1, 24 hours; vs vehicle. The protocol:
Total RNA was isolated with QIAzol lysis reagent (Qiagen, Valencia, Calif.) and purified by RNeasy Mini columns (Qiagen) following the manufacture's instructions. cDNA was prepared from total RNA using the Advantage RT-PCR kit (BD Biosciences, Palo Alto, Calif.) according to manufacturer's instructions. Diluted cDNA was used in a PCR reaction with SYBR Green Master Mix (Applied Biosystems, Foster City, Calif.) and primers specifically designed for detection of the gene of interest. PCR reactions were run in duplicate for each sample and quantitated in the ABI Sequence Detection System (Applied Biosystems). Data were expressed as arbitrary units after normalization to levels of expression of internal controls for each sample. Sequences of primers for specific genes are each obtained from the published literature or designed using publically available gene sequence databases. Unless otherwise indicated, gene expression data described in the examples below was obtained using QPCR.
The effect of FGF6 on differentiation of WT-1 murine brown preadipocytes was also examined. WT-1 cells can be induced to undergo brown adipocyte differentiation, characterized by lipid accumulation and expression of adipogenic and brown fat markers, as described above (Klein et al. (1999) J Biol Chem 274:34795; Tseng et al. (2005) Nat Cell Biol 7:601). WT-1 cells were treated with FGF6 in growth media (DMEM+10% FBS), a vehicle control (“control” or “C” referred to in FIGS. 3A-D), or induction media (“induction” or “I” referred to in FIGS. 3A-D) as described above for seven days. Following the treatment, cells were examined for the color of the culture media in combination with oil Red O staining, expression of adipogenic markers, expression of brown fat markers, immunofluorescent staining of cells with UCP1 and DPAI, and Western blot analysis to determine the presence of UCP1 and β-tubulin. The results are described in FIGS. 3A to 3D.
UCP1 mRNA expression in brown adipocyte cells was determined at FGF6 concentrations ranging from 0 to 300 ng/ml in the absence of induction cocktail.
In order to determine the length of time necessary to induce UCP1 expression upon exposure to of cells to FGF6, an experiment was performed whereby FGF6 was administered to brown preadipocytes at a concentration of 200 ng/ml and UCP1 expression was determined. FGF21 and a control were also used in the time course experiment. FGF21, a member of the endocrine FGF ligands that has been implicated in the browning of white fat (Fisher F. M. et al., Genes Dev. 26:271-281, 2012). […] FGF6 could acutely induce a significant increase of UCP1 expression as early as 4 hours after a 200 ng/ml dose, as described in FIG. 4B. At 24 hours, the fold-induction of UCP1 mRNA by FGF6 reached 700-fold higher than the untreated cells, as described in FIG. 4B.
To assess FGF6's role in the regulation of mitochondrial activity, FGF6 was stably expressed in WT-1 brown preadipocytes and 3T3-F442A white preadipocytes. Stable cells were generated by viral infection followed by drug selection.
FGF2, FGF6 and FGF9 were used at a dosage of 50 ng/mL, 100 ng/mL, 200 ng/mL or 300 ng/mL. FGF21 was used at the dosage of 50 ng/ml and 500 ng/mL. The concentration of BMP7 was 3.3 nM. RNA was isolated and UCP1 and PPARγ expression levels were evaluated by quantitative reverse transcription polymerase chain reaction (Q-RT-PCR) analysis after 24 hours (i.e., 1 day) (FIG. 14A), 2 days (FIG. 14B), 5 days (FIG. 14C) and 7 days (FIG. 14D) of treatment. All experiments were performed triplicate and the data are presented as mean+/−SEM.
FGF2, FGF6 and FGF9 were used at a dosage of 200 ng/mL. FGF21 was used at a dosage of 500 ng/mL. The concentration of BMP7 was 3.3 nM. mRNA was isolated and UCP1 and PPARγ expression levels were evaluated by quantitative reverse transcription polymerase chain reaction (Q-RT-PCR) analysis after 24 hours (i.e., 1 day), 2 days, 5 days and 7 days of treatment (FIG. 15). […]

The subject of assay [2] is WT-1 brown preadipocytes. Nature of the assay: Seahorse Bioanalyzer cellular respiration in WT-1 brown preadipocytes. The note with it: growth media, two days.
From the text: The Seahorse XF24 (Seahorse Bioscience, http://www.seahorsebio.com/) was utilized for respirometry to measure oxygen consumption rates (OCR; indicating oxidative phosphorylation) and extracellular acidification rates (ECAR; indicating extracellular pH) in mature brown adipocytes. The cell plates and assay cartridges for the Seahorse XF24 have four ports allowing for drug delivery to individual wells during measurement of the metabolic parameters. For a typical bioenergetic profile, cells are first treated with oligomycin to block ATP synthase, FCCP as an uncoupler and Rotenone to block Complex 1 of the ETC (all from Sigma). Example 2 provides additional details regarding the general method. […]
A profile of cellular respiration was developed by utilizing well-characterized mitochondrial toxins, as described in FIG. 5B. First, basal respiration was measured, followed by injection of oligomycin (an inhibitor of ATP synthase which allows measurement of ATP turnover). Then, the uncoupler FCCP (carbonilcyanide p-triflouromethoxyphenylhydrazone) was injected to measure respiratory capacity, followed by the complex 1 inhibitor rotenone (which prevents electron transfer activity and leaves only non-mitochondrial activity to be measured). […]
as §1

In the case of `CCCCC[C@H](O)/C=C/[C@H]1[C@H](O)CC(=O)[C@@H]1C/C=C\CCCC(=O)O` [PGE2, reference compound], the “glucose uptake in WT-1 brown preadipocytes” value with WT-1 brown preadipocytes [1] is on record as “enhanced”. Moreover, the “UCP1 mRNA expression” value with UCP1 was “significantly induced”. Besides, the “oxygen consumption in WT-1 brown preadipocytes” value with WT-1 brown preadipocytes [2] was “enhanced”.
As for `CCCCC[C@H](O)/C=C/[C@@H]1[C@H]2C/C(=C/CCCC(=O)O)O[C@H]2C[C@H]1O` [PGI2, reference compound], in the assay on WT-1 brown preadipocytes [1], the “glucose uptake in WT-1 brown preadipocytes” value is “enhanced”. For the same compound, the “UCP1 mRNA expression” value in the assay with UCP1 is “significantly induced”. Moreover, in the assay on WT-1 brown preadipocytes [2], the “oxygen consumption in WT-1 brown preadipocytes” value was “enhanced”.
